# Patent publication US11124516B2, “Pyrrolo[1,2-A]pyrimidinyl carboxamide compounds and their use in the treatment of medical disorders” (Bial—Biotech Investments, Inc., priority 2016, dated 2021)
# How the values were obtained:
# [1] = target: T1, glucocerebrosidase (Gcase) (Homo sapiens, UniProt P04062); experiment: Glucocerebrosidase (Gcase) activation assay, 4-methylumbelliferyl-beta-D-glucopyranoside substrate, fluorescence; format: biochemical; conditions: 10 nM GCase, 100 nM saposin C; for activation at 0.1 µM / activation at 1 µM: 0.25 h; for activation at 0.1 µM: pH 4.7, test compound at 0.1 μM, read-out: Percent Gcase Activation 0.1 μM Test Compound; for activation at 1 µM: pH 4.7, test compound at 1.0 μM, read-out: Percent Gcase Activation 1 μM Test Compound
# T1 sequence (P04062 40-536): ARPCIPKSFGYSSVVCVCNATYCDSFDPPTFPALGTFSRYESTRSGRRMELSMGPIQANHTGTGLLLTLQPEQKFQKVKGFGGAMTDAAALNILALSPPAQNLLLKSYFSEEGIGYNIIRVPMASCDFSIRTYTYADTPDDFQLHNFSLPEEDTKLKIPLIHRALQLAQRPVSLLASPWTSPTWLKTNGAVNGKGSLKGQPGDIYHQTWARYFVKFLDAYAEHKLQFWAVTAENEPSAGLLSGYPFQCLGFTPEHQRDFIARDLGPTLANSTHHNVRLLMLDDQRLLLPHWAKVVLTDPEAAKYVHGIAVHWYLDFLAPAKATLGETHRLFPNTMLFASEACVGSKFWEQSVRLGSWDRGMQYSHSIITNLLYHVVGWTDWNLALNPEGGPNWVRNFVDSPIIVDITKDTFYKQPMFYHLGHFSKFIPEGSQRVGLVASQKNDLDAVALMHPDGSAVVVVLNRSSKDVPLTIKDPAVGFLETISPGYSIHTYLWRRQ
# Protocol: The ability of exemplary compounds to activate glucocerebrosidase (Gcase) was measured.
# A 484 μL aliquot of a 1.0 mg/mL solution of phosphatidylserine (PS) (Sigma P7769) in chloroform was evaporated under a stream of nitrogen for 1 hour. The lipid film was dissolved over 4 minutes of vigorous vortexing in 40 mL of 176 mM K2HPO4/50 mM citric acid (pH 4.7) containing 7.5 μL of triton X-100, resulting in a mixed micellar preparation with a composition of 0.32 mM triton and 0.37 mol % PS. 4-Methylumbelliferyl-beta-D-glucopyranoside (ACROS-337025000) was dissolved in the micellar solution to a final concentration of 2 mM for use as the reaction substrate.
# Test compounds were diluted to the desired concentrations with dimethylsulfoxide (DMSO) from 10 mM stocks, and 0.41 μL of the DMSO compound mixture was added to 100 μL of micellar solution containing 10 nM GCase and 100 nM saposin C (Enzo ALX-201-262-C050). Pre-incubation was allowed to occur for 30 minutes at room temperature, after which the reaction was initiated by combining 25 μL of substrate solution with 25 μL of compound/GCase/saposin mixture. The reaction proceeded for 15 minutes at room temperature and was stopped by adding 150 μL of 1M glycine, pH 12.5. The endpoint of the reaction was monitored by measuring fluorescence intensity (excitation: 365 nm; emission: 440 nm) on a SpectraMax i3 instrument (Molecular Devices). Test compounds were screened at 1.0 and 0.1 μM final concentration, and subsequent 8-point dose response curves were obtained using 3-fold dilutions from a maximum final concentration of 5 μM.
# For experiments in which the test compound was used at a concentration of 1.0 μM, the symbol “+” indicates less than 30% Gcase activation; the symbol “++” indicates Gcase activation in the range of 30% up to 60%; and the symbol “+++” indicates Gcase activation greater than 60%. For experiments in which the test compound was used at a concentration of 0.1 μM, the symbol “*” indicates less than 10% Gcase activation; the symbol “**” indicates Gcase activation in the range of 10% up to 20%; and the symbol “***” indicates greater than 20% Gcase activation.
# [2] = Compound solubility in water; format: physicochemical
SMILES,activation at 0.1 µM [1],activation at 1 µM [1],solubility [2],"Percent Gcase Activation 0.1 μM Test Compound ([1]; test compound at 0.1 μM, pH 4.7)","Percent Gcase Activation 1 μM Test Compound ([1]; test compound at 1.0 μM, pH 4.7)",Compound Solubility in Water [2]
Cc1cc(C(F)F)n2ccc(C(=O)N[C@@H](C)C3CC3)c2n1 [III-8],> 20%,> 60%,20.1 µg/mL,–,–,–
COCc1cc(C)nc2c(C(=O)N[C@H]3CC[C@H](OCC(C)C)CC3)ccn12 [IV-3],> 20%,> 60%,15.9 µg/mL,–,–,–
Cc1cccc(C2CC2C(C)NC(=O)c2ccn3c(C)cc(C)nc23)c1 (stereo not shown) [IV-42],> 20%,> 60%,1.1 µg/mL,–,–,–
Cc1cc(C)n2c(C)cc(C(=O)N[C@@H](C)C3CC3)c2n1 [III-26],10 to 20%,> 60%,8.6 µg/mL,–,–,–
COCc1cc(C)n2ccc(C(=O)NC(C)(C)C3CC3)c2n1 [III-15],10 to 20%,> 60%,21.9 µg/mL,–,–,–
Cc1cc(C(F)F)nc2c(C(=O)N[C@@H](C)C3CC3)ccn12 [III-7],> 20%,> 60%,9.5 µg/mL,–,–,–
CNc1cc(C)n2ccc(C(=O)NC(C)(C)C3CC3)c2n1 [III-10],> 20%,> 60%,11 µg/mL,–,–,–
Cc1cc(C)n2ccc(C(=O)NC(CC(C)C)c3cccnc3)c2n1 (stereo not shown) [IV-52],< 10%,30 to 60%,17.3 µg/mL,–,–,–
Cc1cc(C)n2ccc(C(=O)NC(C)(C)C3CC3)c2n1 [III-23],> 20%,> 60%,18.7 µg/mL,–,–,–
COCC(NC(=O)c1ccn2c(C)cc(C)nc12)c1ccccc1 (stereo not shown) [III-20],< 10%,> 60%,13.7 µg/mL,–,–,–
COCc1cc(C)n2ccc(C(=O)N[C@H]3CC[C@H](OCC(C)C)CC3)c2n1 [IV-4],10 to 20%,> 60%,16.9 µg/mL,–,–,–
Cc1cc(C)n2ccc(C(=O)NC(C)c3cccc4ccccc34)c2n1 (stereo not shown) [IV-47],–,–,–,*** (greater than 20% Gcase activation),+++ (Gcase activation greater than 60%),0.7 µg/mL
COc1ccccc1[C@@H](C)NC(=O)c1ccn2c(C)cc(C)nc12 [IV-29],10 to 20%,> 60%,2.3 µg/mL,–,–,–
COCc1cc(C)nc2c(C(=O)N[C@H]3CC[C@H](OCC(C)(C)C)CC3)ccn12 [IV-2],> 20%,> 60%,4.2 µg/mL,–,–,–
CCC(NC(=O)c1ccn2c(C)cc(C)nc12)c1ccc2c(c1)OCCO2 (stereo not shown) [IV-62],10 to 20%,> 60%,1.1 µg/mL,–,–,–
Cc1cc(C(F)F)n2ccc(C(=O)N[C@H]3CC[C@H](OCC(C)(C)C)CC3)c2n1 [IV-10],> 20%,> 60%,0.3 µg/mL,–,–,–
Cc1nc2c(C(=O)N[C@@H](C)C3CC3)ccn2c(C)c1-c1ccc(F)cc1 [III-52],< 10%,< 30%,1.7 µg/mL,–,–,–
Cc1cc(-c2ccc(F)cc2)nc2c(C(=O)N[C@@H](C)C3CC3)ccn12 [III-30],> 20%,> 60%,0.1 µg/mL,–,–,–
CCCCO[C@H]1CC[C@H](NC(=O)c2ccn3c(C)cc(-c4cccnc4)nc23)CC1 [III-59],> 20%,> 60%,1.9 µg/mL,–,–,–
COCc1cc(C)n2ccc(C(=O)N[C@H]3CC[C@H](OCC(C)(C)C)CC3)c2n1 [IV-1],> 20%,> 60%,2.5 µg/mL,–,–,–
Cc1cc(N2CCC(F)(F)CC2)nc2c(C(=O)NC(C)(C)C3CC3)ccn12 [III-44],10 to 20%,> 60%,1.4 µg/mL,–,–,–
CCOc1ccccc1C(C)NC(=O)c1ccn2c(C)cc(C)nc12 (stereo not shown) [IV-78],> 20%,> 60%,2.1 µg/mL,–,–,–
Cc1cc(C)n2c(F)cc(C(=O)N[C@@H](C)C3CC3)c2n1 [IV-17],10 to 20%,> 60%,21.6 µg/mL,–,–,–

SMILES,activation at 0.1 µM [1],activation at 1 µM [1],solubility [2],"Percent Gcase Activation 0.1 μM Test Compound ([1]; test compound at 0.1 μM, pH 4.7)","Percent Gcase Activation 1 μM Test Compound ([1]; test compound at 1.0 μM, pH 4.7)",Compound Solubility in Water [2]
Cc1c(-c2ccc(F)cc2)cnc2c(C(=O)N[C@@H](C)C3CC3)ccn12 [III-51],< 10%,< 30%,0.1 µg/mL,–,–,–
Cc1c2c(nc3c(C(=O)N[C@H]4CC[C@H](OC(C)(C)C)CC4)ccn13)CCC2 [III-71],< 10%,30 to 60%,8 µg/mL,–,–,–
Cc1cc(-c2ccccn2)nc2c(C(=O)NC(C)(C)C3CC3)ccn12 [III-39],> 20%,> 60%,0.7 µg/mL,–,–,–
CCCO[C@H]1CC[C@H](NC(=O)c2ccn3c(C)cc(-c4cccnc4)nc23)CC1 [III-57],10 to 20%,> 60%,14.9 µg/mL,–,–,–
Cc1cc(-c2cccnc2)nc2c(C(=O)NC(C3CC3)C(F)(F)F)ccn12 (stereo not shown) [III-55],> 20%,> 60%,2.9 µg/mL,–,–,–
Cc1cc(-c2cccnc2)nc2c(C(=O)N[C@H]3CC[C@H](OCC(C)C)CC3)ccn12 [III-58],> 20%,> 60%,1.9 µg/mL,–,–,–
Cc1cc(C)n2cc(C3CC3)c(C(=O)NC(C)(C)C3CC3)c2n1 [III-25],< 10%,30 to 60%,0.3 µg/mL,–,–,–
CCC(NC(=O)c1ccn2c(C)cc(C)nc12)c1cccc(C)n1 (stereo not shown) [IV-55],< 10%,< 30%,17.6 µg/mL,–,–,–
Cc1cc(Br)nc2c(C(=O)NC(C)(C)C3CC3)ccn12 [III-14],10 to 20%,> 60%,2.9 µg/mL,–,–,–
Cc1cc(C)n2ccc(C(=O)N[C@H](C)c3ccc(Cl)cc3)c2n1 [IV-25],> 20%,> 60%,0.6 µg/mL,–,–,–
Cc1cc(-c2cccnc2)nc2c(C(=O)NC(C)(C)C3CC3)ccn12 [III-41],> 20%,> 60%,2.5 µg/mL,–,–,–
Cc1cc(C(F)F)n2ccc(C(=O)N[C@H]3CC[C@H](OC(C)(C)C)CC3)c2n1 [IV-8],10 to 20%,> 60%,0.9 µg/mL,–,–,–
Cc1cc(-c2ccc(F)cc2)n2ccc(C(=O)N[C@@H](C)C3CC3)c2n1 [III-31],< 10%,30 to 60%,0.7 µg/mL,–,–,–
CCC(NC(=O)c1ccn2c(C)cc(C)nc12)c1ccc(F)cc1 (stereo not shown) [IV-56],> 20%,> 60%,2 µg/mL,–,–,–
Cc1cc(C)n2ccc(C(=O)NC(CC3CCC3)c3ccccc3)c2n1 (stereo not shown) [IV-41],> 20%,> 60%,0.5 µg/mL,–,–,–
Cc1cc(C)n2cc(C)c(C(=O)N[C@@H](C)C3CC3)c2n1 [III-27],10 to 20%,> 60%,8.6 µg/mL,–,–,–
Cc1cc(C)n2ccc(C(=O)NC(C)(C)c3ccccc3Cl)c2n1 [IV-22],10 to 20%,> 60%,1.3 µg/mL,–,–,–
COc1cccc([C@@H](C)NC(=O)c2ccn3c(C)cc(C)nc23)c1 [IV-32],10 to 20%,> 60%,7.8 µg/mL,–,–,–
Cc1cc(C)n2ccc(C(=O)NC(C)(C)c3cccc(Cl)c3)c2n1 [IV-96],> 20%,> 60%,–,–,–,–
Cc1cc(C)n2ccc(C(=O)NC(CO)c3cccc4ccccc34)c2n1 (stereo not shown) [IV-94],< 10%,30 to 60%,–,–,–,–
Cc1cc(C)n2ccc(C(=O)NC(Cc3ccccc3)c3ccccc3)c2n1 (stereo not shown) [IV-38],–,–,0.2 µg/mL,–,–,–
CCC(NC(=O)c1ccn2c(C)cc(C)nc12)c1ncccc1C (stereo not shown) [IV-57],< 10%,< 30%,–,–,–,–
